Results from patent publication US20260053834A1, “COVALENT MODIFIERS OF AKT1 AND USES THEREOF” (Terremoto Biosciences, Inc., priority 2023, published 2026).
pIC50: −log10 of the molar value.

Experiments:
[1] = system: LAPC4 prostate cancer cells, which express the AKT1 E17K allele; test: Antiproliferative effects in LAPC4 cells (CellTiter Glo, 72 h); type: cell-based; conditions: Homo sapiens, LAPC4, 72 h, read-out: LAPC4 proliferation IC50: GeoMean IC50
Method: Antiproliferative effects in LAPC4 cells. LAPC4 prostate cancer cells (Klein, K. A. et al. Nat Med 1997, 3, 402-408), which express the AKT1 E17K allele, were grown in IMDM media (Hyclone) supplemented with 12% FBS+1% P/S. To assess compound effects on growth, 1,000 cells/well were seeded in 384 well assay plates, incubated with compound dilutions dissolved in DMSO. After 72 h, intracellular ATP content was assessed with CellTiter Glo reagent (Promega) according to the manufacturer's instructions. IC50 values were calculated by fitting luminescence values to a log(inhibitor) vs. response Hill equation.

AKT1 E17K = target: T1, AKT1 E17K (Homo sapiens, UniProt P31749, E17K); test: Live cell target engagement by NanoBRET competitive probe displacement, AKT1 E17K; type: binding; conditions: transfected HEK293 cells, 2 h at 37° C., read-out: AKT1 E17K IC50: GeoMean IC50
T1 construct: expressed in transfected cells; host or cells: HEK293
Method: (§1) Determining live cell AKT1 E17K, AKT1 WT, and AKT2 target engagement by NanoBRET competitive probe displacement. Live cell target engagement assays were performed as described (Vasta, J. D. et al. Cell Chem Biol 2018, 25(11), 206-214). Briefly, HEK293 cells were transfected with plasmids encoding kinase-NanoLuciferase fusion proteins overnight. Cells were then treated with serial dilutions of compound and an ˜EC50 concentration of fluorescently-tagged ATP-competitive tracer (Promega). After incubation for 2 h at 37° C., luciferase substrate and extracellular luciferase inhibitor were added to all wells, and luminescent intensity at 460 nm and 600 nm were measured on a multimode plate-reader. The ratio of E600/E460 was calculated to give the tracer engagement signal (BRET). IC50 values were calculated by fitting BRET values to a log(inhibitor) vs. response Hill equation.

AKT1 WT = target: T2, AKT1 WT (Homo sapiens, UniProt P31749); test: Live cell target engagement by NanoBRET competitive probe displacement, AKT1 WT; type: binding; conditions: transfected HEK293 cells, 2 h at 37° C., read-out: AKT1 WT IC50: GeoMean IC50
T2 construct: expressed in transfected cells; host or cells: HEK293
Method: as §1

AKT2 = target: T3, AKT2 (Homo sapiens, UniProt P31751); test: Live cell target engagement by NanoBRET competitive probe displacement, AKT2; type: binding; conditions: transfected HEK293 cells, 2 h at 37° C., read-out: AKT2 IC50: GeoMean IC50
T3 construct: expressed in transfected cells; host or cells: HEK293
Method: as §1

T1 sequence (P31749 whole entry E17K): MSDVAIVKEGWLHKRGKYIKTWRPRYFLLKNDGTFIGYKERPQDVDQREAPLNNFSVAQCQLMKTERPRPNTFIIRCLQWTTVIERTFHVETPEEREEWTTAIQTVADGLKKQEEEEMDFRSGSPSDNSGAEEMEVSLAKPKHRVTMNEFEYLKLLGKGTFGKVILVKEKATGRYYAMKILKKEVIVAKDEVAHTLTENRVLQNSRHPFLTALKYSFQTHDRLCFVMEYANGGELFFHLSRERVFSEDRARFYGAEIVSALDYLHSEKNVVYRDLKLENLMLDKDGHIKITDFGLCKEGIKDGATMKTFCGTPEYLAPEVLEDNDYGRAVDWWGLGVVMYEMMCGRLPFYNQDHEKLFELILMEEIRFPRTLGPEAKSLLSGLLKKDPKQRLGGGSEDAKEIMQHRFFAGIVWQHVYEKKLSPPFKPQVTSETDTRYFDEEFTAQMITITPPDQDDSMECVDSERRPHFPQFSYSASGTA
T2 sequence (P31749 whole entry): as the sequence (P31749 whole entry E17K) above, with K17E counted along it
T3 sequence (P31751 whole entry): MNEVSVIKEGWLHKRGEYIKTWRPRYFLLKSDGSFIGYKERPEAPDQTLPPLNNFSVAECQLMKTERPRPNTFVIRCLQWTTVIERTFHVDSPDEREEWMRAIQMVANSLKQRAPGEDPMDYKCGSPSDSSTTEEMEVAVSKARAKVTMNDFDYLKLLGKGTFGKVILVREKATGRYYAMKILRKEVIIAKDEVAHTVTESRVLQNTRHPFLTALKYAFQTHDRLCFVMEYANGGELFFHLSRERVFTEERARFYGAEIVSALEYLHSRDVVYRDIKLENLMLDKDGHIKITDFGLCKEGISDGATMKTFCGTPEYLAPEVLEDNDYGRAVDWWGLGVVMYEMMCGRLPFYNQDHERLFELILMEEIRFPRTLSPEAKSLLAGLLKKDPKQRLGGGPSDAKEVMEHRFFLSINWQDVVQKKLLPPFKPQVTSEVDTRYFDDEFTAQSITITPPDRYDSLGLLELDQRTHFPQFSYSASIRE

In the case of Nc1ncccc1-c1nc2ccc(-n3cccn3)nc2n1-c1ccc2c(c1)CC[C@@H]2NC(=O)c1ccc(O)c(C=O)c1F [Example 255, (S)—N-(5-(2-(2-aminopyridin-3-yl)-5-(1H-pyrazol-1-yl)-3H-imidazo[4,5-b]pyridin-3-yl)-2,3-dihydro-1H-inden-1-yl)-2-fluoro-3-formyl-4-hydroxybenzamide], the pIC50 [1] was 5.70 to 7.00, the pIC50 (AKT1 E17K) was 7.00 to 8.00 and the pIC50 (AKT1 WT) was 5.70 to 7.00. The pIC50 (AKT2) was 5.70 to 7.00.

Molecule Cc1ccn(-c2ccc3nc(-c4cccnc4N)n(-c4ccc5c(c4)CC[C@@H]5NC(=O)c4ccc(O)c(C=O)c4)c3n2)n1 [Example 95, N-[(1S)-5-[2-(2-aminopyridin-3-yl)-5-(3-methylpyrazol-1-yl)imidazo[4,5-b]pyridin-3-yl]-2,3-dihydro-1H-inden-1-yl]-3-formyl-4-hydroxybenzamide] has a pIC50 [1] of 7.00 to 8.00, a pIC50 (AKT1 E17K) of 7.00 to 8.00 and a pIC50 (AKT1 WT) of 7.00 to 8.00. For the same molecule, the pIC50 (AKT2) was 5.70 to 7.00.

Nc1ncc(F)cc1-c1nc2ccc(-n3cccn3)nc2n1-c1ccc2c(c1)CC[C@@H]2NC(=O)c1ccc(O)c(C=O)c1 [Example 163, (S)—N-(5-(2-(2-amino-5-fluoropyridin-3-yl)-5-(1H-pyrazol-1-yl)-3H-imidazo[4,5-b]pyridin-3-yl)-2,3-dihydro-1H-inden-1-yl)-3-formyl-4-hydroxybenzamide] was tested, and the pIC50 [1] was at most 5.70, the pIC50 (AKT1 E17K) was 7.00 to 8.00 and the pIC50 (AKT1 WT) was 7.00 to 8.00. The pIC50 (AKT2) was at most 5.70.

Cn1ccnc1Nc1ccc(C(=O)N[C@H]2CCc3cc(-n4c(-c5cccnc5N)nc5ccc(-n6cccn6)nc54)ccc32)cc1C=O [Example 141, (S)—N-(5-(2-(2-aminopyridin-3-yl)-5-(1H-pyrazol-1-yl)-3H-imidazo[4,5-b]pyridin-3-yl)-2,3-dihydro-1H-inden-1-yl)-3-formyl-4-((1-methyl-1H-imidazol-2-yl)amino)benzamide] was tested, and the pIC50 [1] was 5.70 to 7.00, the pIC50 (AKT1 E17K) was 5.70 to 7.00 and the pIC50 (AKT1 WT) was 7.00 to 8.00. The pIC50 (AKT2) was 5.70 to 7.00.

Work on Cc1noc(-c2ccc3nc(-c4cccnc4N)n(-c4ccc5c(c4)CC[C@@H]5NC(=O)c4ccc(O)c(C=O)c4)c3n2)n1 [Example 179, N-[(1S)-5-[2-(2-aminopyridin-3-yl)-5-(3-methyl-1,2,4-oxadiazol-5-yl)imidazo[4,5-b]pyridin-3-yl]-2,3-dihydro-1H-inden-1-yl]-3-formyl-4-hydroxybenzamide] yielded a pIC50 [1] of 5.70 to 7.00, a pIC50 (AKT1 E17K) of 7.00 to 8.00 and a pIC50 (AKT1 WT) of 7.00 to 8.00. The pIC50 (AKT2) was 5.70 to 7.00.

In the case of Nc1ncccc1-c1nc2ccc(C(F)(F)F)nc2n1-c1ccc2c(c1)CC[C@@H]2NC(=O)c1ccc(O)c(C=O)c1 [Example 55, (S)—N-(5-(2-(2-aminopyridin-3-yl)-5-(trifluoromethyl)-3H-imidazo[4,5-b]pyridin-3-yl)-2,3-dihydro-1H-inden-1-yl)-3-formyl-4-hydroxybenzamide], the pIC50 [1] was at most 5.70, the pIC50 (AKT1 E17K) was 5.70 to 7.00 and the pIC50 (AKT1 WT) was 5.70 to 7.00. For the same molecule, the pIC50 (AKT2) was at most 5.70.

Molecule Nc1ncccc1-c1nc2ccc(-c3ccn(C(F)F)n3)nc2n1-c1ccc2c(c1)CC[C@@H]2NC(=O)c1ccc(O)c(C=O)c1 [Example 113, N-[(1S)-5-[2-(2-aminopyridin-3-yl)-5-[1-(difluoromethyl)pyrazol3-yl]imidazo [4,5-b]pyridin-3-yl]-2,3-dihydro-1H-inden-1-yl]-3-formyl-4-hydroxybenzamide] has a pIC50 [1] of 7.00 to 8.00, a pIC50 (AKT1 E17K) of over 8.00 and a pIC50 (AKT1 WT) of 7.00 to 8.00. It also gave a pIC50 (AKT2) of 5.70 to 7.00.

N#Cc1ccc2nc(-c3cccnc3N)n(-c3ccc4c(c3)CC[C@@H]4NC(=O)c3ccc(O)c(C=O)c3)c2n1 [Example 79, (S)—N-(5-(2-(2-aminopyridin-3-yl)-5-cyano-3H-imidazo[4,5-b]pyridin-3-yl)-2,3-dihydro-1H-inden-1-yl)-3-formyl-4-hydroxybenzamide] showed a pIC50 [1] of at most 5.70, a pIC50 (AKT1 E17K) of 5.70 to 7.00 and a pIC50 (AKT1 WT) of 5.70 to 7.00. The pIC50 (AKT2) was at most 5.70.

Cc1cnc(-c2ccc3nc(-c4cccnc4N)n(-c4ccc5c(c4)CC[C@@H]5NC(=O)c4ccc(O)c(C=O)c4)c3n2)s1 [Example 132, (S)—N-(5-(2-(2-aminopyridin-3-yl)-5-(5-methylthiazol-2-yl)-3H-imidazo[4,5-b]pyridin-3-yl)-2,3-dihydro-1H-inden-1-yl)-3-formyl-4-hydroxybenzamide] gave a pIC50 [1] of 7.00 to 8.00, a pIC50 (AKT1 E17K) of over 8.00 and a pIC50 (AKT1 WT) of 7.00 to 8.00. The pIC50 (AKT2) was 5.70 to 7.00.

With Nc1ncccc1-c1nc2ccc(-n3cccn3)nc2n1-c1ccc2c(c1)CC[C@@H]2N1Cc2cc(O)c(C=O)cc2C1=O [Example 208, (S)-2-(5-(2-(2-aminopyridin-3-yl)-5-(1H-pyrazol-1-yl)-3H-imidazo[4,5-b]pyridin-3-yl)-2,3-dihydro-1H-inden-1-yl)-6-hydroxy-3-oxoisoindoline-5-carbaldehyde] the pIC50 [1] was at most 5.70, the pIC50 (AKT1 E17K) was at most 5.70 and the pIC50 (AKT1 WT) was at most 5.70. It also gave a pIC50 (AKT2) of at most 5.70.

In the case of Cc1cc(O)c(C=O)cc1C(=O)N[C@H]1CCc2cc(-n3c(-c4cccnc4N)nc4ccc(-n5cccn5)nc43)ccc21 [Example 149, N-[(1S)-5-[2-(2-aminopyridin-3-yl)-5-(pyrazol-1-yl)imidazo[4,5-b]pyridin-3-yl]-2,3-dihydro-1H-inden-1-yl]-5-formyl-4-hydroxy-2-methylbenzamide], the pIC50 [1] was 5.70 to 7.00, the pIC50 (AKT1 E17K) was 7.00 to 8.00 and the pIC50 (AKT1 WT) was 5.70 to 7.00. The pIC50 (AKT2) was 5.70 to 7.00.

Nc1ncccc1-c1nc2ccc(-c3ccn(C(F)F)n3)nc2n1-c1ccc2c(c1)CC[C@@H]2NC(=O)c1cc(C=O)c(O)cc1F [Example 158, N-[(1S)-5-[2-(2-aminopyridin-3-yl)-5-[1-(difluoromethyl)pyrazol-3-yl]imidazo[4,5-b]pyridin-3-yl]-2,3-dihydro-1H-inden-1-yl]-2-fluoro-5-formyl-4-hydroxybenzamide] showed a pIC50 [1] of 7.00 to 8.00, a pIC50 (AKT1 E17K) of 7.00 to 8.00 and a pIC50 (AKT1 WT) of 7.00 to 8.00. For the same molecule, the pIC50 (AKT2) was 5.70 to 7.00.

Work on Cc1cnc(N)c(-c2nc3ccc(-n4cccn4)nc3n2-c2ccc3c(c2)CC[C@@H]3NC(=O)c2ccc(O)c(C=O)c2)c1 [Example 167, (S)—N-(5-(2-(2-amino-5-methylpyridin-3-yl)-5-(1H-pyrazol-1-yl)-3H-imidazo[4,5-b]pyridin-3-yl)-2,3-dihydro-1H-inden-1-yl)-3-formyl-4-hydroxybenzamide] yielded a pIC50 [1] of at most 5.70, a pIC50 (AKT1 E17K) of 5.70 to 7.00 and a pIC50 (AKT1 WT) of 5.70 to 7.00. The pIC50 (AKT2) was 5.70 to 7.00.

Work on Nc1ncccc1-c1nc2ccc(-c3ccccc3)nc2n1-c1ccc2c(c1)CC[C@@H]2NC(=O)c1cc(C=O)c(O)cn1 [Example 40, N-[(1S)-5-[2-(2-aminopyridin-3-yl)-5-phenylimidazo[4,5-b]pyridin-3-yl]-2,3-dihydro-1H-inden-1-yl]-4-formyl-5-hydroxypyridine-2-carboxamide] yielded a pIC50 [1] of at most 5.70, a pIC50 (AKT1 E17K) of at most 5.70 and a pIC50 (AKT1 WT) of 5.70 to 7.00. The pIC50 (AKT2) was at most 5.70.

For Nc1ncccc1-c1nc2ccc(-c3ccccc3)nc2n1-c1ccc2c(c1)CC[C@@H]2Nc1nccc2c(C=O)c(O)ccc12 [Example 39, 1-{[(1S)-5-[2-(2-aminopyridin-3-yl)-5-phenylimidazo[4,5-b]pyridin-3-yl]-2,3-dihydro-1H-inden-1-yl]amino}-6-hydroxyisoquinoline-5-carbaldehyde], the pIC50 [1] was 5.70 to 7.00, the pIC50 (AKT1 E17K) was 5.70 to 7.00 and the pIC50 (AKT1 WT) was 5.70 to 7.00. For the same molecule, the pIC50 (AKT2) was 5.70 to 7.00.

With Nc1ncccc1-c1nc2ccc(-c3ccccc3)nc2n1-c1ccc2c(c1)CC[C@@H]2NC(=O)c1cc(C=O)c(O)c(Cl)n1 [Example 176, (S)—N-(5-(2-(2-aminopyridin-3-yl)-5-phenyl-3H-imidazo[4,5-b]pyridin-3-yl)-2,3-dihydro-1H-inden-1-yl)-6-chloro-4-formyl-5-hydroxypicolinamide] the pIC50 [1] was 5.70 to 7.00, the pIC50 (AKT1 E17K) was 7.00 to 8.00 and the pIC50 (AKT1 WT) was 5.70 to 7.00. The pIC50 (AKT2) was 5.70 to 7.00.

Nc1ncccc1-c1nc2ccc(-c3ccccc3)nc2n1-c1ccc2c(c1)CC[C@@H]2NC(=O)c1ccc(NC(=O)C2CC2)c(C=O)c1 [Example 47, N-[(1S)-5-[2-(2-aminopyridin-3-yl)-5-phenylimidazo[4,5-b]pyridin-3-yl]-2,3-dihydro-1H-inden-1-yl]-4-cyclopropaneamido-3-formylbenzamide] was tested, and the pIC50 [1] was 7.00 to 8.00, the pIC50 (AKT1 E17K) was 7.00 to 8.00 and the pIC50 (AKT1 WT) was 7.00 to 8.00. It also gave a pIC50 (AKT2) of 7.00 to 8.00.

Molecule Nc1ncccc1-c1nc2ccc(Cl)nc2n1-c1ccc2c(c1)CC[C@@H]2NC(=O)c1ccc(O)c(C=O)c1 [Example 136, N-[(1S)-5-[2-(2-aminopyridin-3-yl)-5-chloroimidazo[4,5-b]pyridin-3-yl]-2,3-dihydro-1H-inden-1-yl]-3-formyl-4-hydroxybenzamide] has a pIC50 [1] of 5.70 to 7.00, a pIC50 (AKT1 E17K) of 7.00 to 8.00 and a pIC50 (AKT1 WT) of 5.70 to 7.00. The pIC50 (AKT2) was at most 5.70.
